The record followed here is patent US10669283B2, “Compound and pharmacologically acceptable salt thereof” (MEIJI SEIKA PHARMA CO., LTD., priority 2016, dated 2020).

Read-outs that look alike come from different tables or passages of the source.

One data set relates to PDE4. Nature of the data set: PDE4 inhibition, scintillation proximity assay (SPA). The class given is biochemical. Put shortly: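 Compound pre-diluted 1:10 in 50 mM Tris-HCl pH 7.4, 8.3 mM MgCl2, 1.7 mM EGTA, 3 mg/mL BSA, then incubated with PDE4 and [2,8-3H]-cAMP for 120 min at room temperature. Product captured on ZnSO4-containing YSi-SPA beads for 15 min; radioactivity counted against no-enzyme blank and DMSO control.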
In general terms: In a scintillation proximity assay essentially only radioactivity close to the scintillant gives light.

The nature of data set [1]: Hepatic metabolic stability (rat liver microsome method). Format: in vitro ADME. Conditions: rat liver microsomes 0.5 mg/mL, test substance 1 μM, NADPH 1 mM, 37° C., 30 minutes. Here is the method:
Metabolic stability in rat liver microsomes was evaluated by the following method. In 100 mM of potassium phosphate buffer solution (pH 7.4), liver microsomes (concentration at reaction: 0.5 mg/mL) and the test substance (concentration at reaction: 1 μM) were preincubated at 37° C. Five minutes later, 100 mM of potassium phosphate buffer (pH 7.4) solution of NADPH (concentration at reaction: 1 mM) was mixed thereto to start the reaction. After a predetermined time passed, acetonitrile was mixed to the reaction mixture to stop the reaction. Here, the reaction time was 0 and 30 minutes, and drug concentration measurement was performed for each time period using LC-MS. The % remaining value of the test compound was calculated from the value for 0 minutes and the value for 30 minutes, using the calculation formula below: % Remaining=(Value for 30 Minutes/Value for 0 Minutes)×100
The results of measuring the rat liver microsome metabolic Stability (% remaining for 30-minute reaction) for the test compound by the above method were evaluated in accordance with the following evaluated basis; A: a % remaining rate of 75% or more, B: 60% or more and less than 75%, C: 45% or more and less than 60%, and D: less than 45%.
A general note: Liver microsomes are a subcellular fraction often used to study metabolism.

Setting [2] is: scintillation proximity assay (SPA), evaluated as classes A, B, C, read-out: PDE4 Inhibitory Activity (concentration for the inhibition rate of 50%).
[3] abbreviates: scintillation proximity assay, class symbols, read-out: PDE4 Inhibitory Activity.

Take `C[C@@H](O)COc1ccc(-c2nccs2)c2oc(N3CC4CC(C3)N4)nc12` [Example 259, (2R)-1-((2-(3,6-diazabicyclo[3.1.1]heptan-3-yl)-7-(thiazol-2-yl)benzo[d]oxazol-4-yl)oxy)propan-2-ol]: the IC50 in the data set with PDE4 (setting [2]) is less than 100 nM. For the same molecule, the “Residual ratio (% remaining for 30-minute reaction)” value in data set [1] is given as “A (a % remaining rate of 75% or more)”.

As to `CC(C)(O)C(F)(F)Oc1ccc(-c2nccs2)c2oc(N3CC4CC(C3)N4)nc12` [Example 248, 1-((2-(3,6-Diazabicyclo[3.1.1]heptan-3-yl)-7-(thiazol-2-yl)benzo[d]oxazol-4-yl)oxy)-1,1-difluoro-2-methylpropan-2-ol], the IC50 in the data set on PDE4 (setting [2]) was less than 100 nM. The “Residual ratio (% remaining for 30-minute reaction)” value in data set [1] is “A (a % remaining rate of 75% or more)”.

Consider `OCC(F)(F)Oc1c(Cl)cc(-c2nccs2)c2oc(N3CC4CC(C3)N4)nc12` [Example 401, 2-((2-(3,6-diazabicyclo [3.1.1]heptan-3-yl)-5-chloro-7-(thiazol-2-yl)benzo[d]oxazol-4-yl)oxy)-2,2-difluoroethan-1-ol], for which, in the data set on PDE4 (setting [3]), the IC50 is less than 100 nM. The “Residual ratio (% remaining for 30-minute reaction)” value in data set [1] is given as “A (a % remaining rate of 75% or more)”.

With `Cc1nsc(-c2ccc(OC(F)(F)C(C)(C)O)c3nc(N4CC5CCC(C4)N5)oc23)n1` [Example 333, 1-((2-(3,8-diazabicyclo [3.2.1]octan-3-yl)-7-(3-methyl-1,2,4-thiadiazol-5-yl)benzo[d]oxazol-4-yl)oxy)-1,1-difluoro-2-methylpropan-2-ol], in the data set with PDE4 (setting [3]), the IC50 lay within 100 to 1000 nM. In data set [1], the “Residual ratio (% remaining for 30-minute reaction)” value was “B (60% or more and less than 75%)”.

Take `FC(F)(F)Oc1ccc(Oc2ccc(-c3nccs3)c3oc(N4CC5CC(C4)N5)nc23)nc1` [Example 343]: the IC50 with PDE4 (setting [3]) is less than 100 nM. Further, in data set [1], the “Residual ratio (% remaining for 30-minute reaction)” value was “B (60% or more and less than 75%)”.

On to `c1cnc(Oc2ccc(-c3nccs3)c3oc(N4CC5CC(C4)N5)nc23)cn1` [Example 339, 2-(3,6-diazabicyclo[3.1.1]heptan-3-yl)-4-(pyrazin-2-yloxy)-7-(thiazol-2-yl)benzo [d]oxazole], for which the IC50 in the data set on PDE4 (setting [3]) is less than 100 nM. Also, the “Residual ratio (% remaining for 30-minute reaction)” value in data set [1] is “B (60% or more and less than 75%)”.

Take `CC(O)(CO)C(F)(F)Oc1ccc(-c2nccs2)c2oc(N3CC4CC(C3)N4)nc12` (single isomer, unassigned) [Example 364, 3-((2-(3,6-diazabicyclo [3.1.1]heptan-3-yl)-7-(thiazol-2-yl)benzo[d]oxazol-4-yl)oxy)-3,3-difluoro-2-methylpropane-1,2-diol]: the IC50 in the data set on PDE4 (setting [3]) is less than 100 nM. In addition, in data set [1], the “Residual ratio (% remaining for 30-minute reaction)” value was “A (a % remaining rate of 75% or more)”.

For `O=C(N1CC(O)C1)C(F)(F)Oc1ccc(-c2nccs2)c2oc(N3CC4CC(C3)N4)nc12` [Example 412, 2-((2-(3,6-diazabicyclo [3.1.1]heptan-3-yl)-7-(thiazol-2-yl)benzo[d]oxazol-4-yl)oxy)-2,2-difluoro-1-(3-hydroxy-azetidin-1-yl)ethan-1-one], in the data set on PDE4 (setting [3]), the IC50 is less than 100 nM. Moreover, in data set [1], the “Residual ratio (% remaining for 30-minute reaction)” value is “A (a % remaining rate of 75% or more)”.

`COCCNS(=O)(=O)c1ccc(-c2nccs2)c2oc(N3CC4CC(C3)N4)nc12` [Example 387, 2-(3,6-diazabicyclo[3.1.1]heptan-3-yl)-N-(2-methoxyethyl)-7-(thiazol-2-yl)benzo [d]oxazole-4-sulfonamide]: in the data set on PDE4 (setting [3]), the IC50 was less than 100 nM. Also, the “Residual ratio (% remaining for 30-minute reaction)” value in data set [1] was “A (a % remaining rate of 75% or more)”.

In the case of `CS(=O)(=O)c1ccc(-c2nccs2)c2oc(N3CC4CC(C3)N4)nc12` [Example 347, 2-(3,6-diazabicyclo[3.1.1]heptan-3-yl)-4-(methylsulfonyl)-7-(thiazol-2-yl)benzo [d]oxazole], in the data set on PDE4 (setting [3]), the IC50 was less than 100 nM. In addition, the “Residual ratio (% remaining for 30-minute reaction)” value in data set [1] was “A (a % remaining rate of 75% or more)”.

As to `O=C(c1ccc(-c2nccs2)c2oc(N3CC4CC(C3)N4)nc12)N1CCCC1` [Example 360, (2-(3,6-diazabicyclo [3.1.1]heptan-3-yl)-7-(thiazol-2-yl)benzo[d]oxazole-4-yl)(pyrrolidin-1-yl)methanone], the IC50 with PDE4 (setting [3]) is 100 to 1000 nM. Further, in data set [1], the “Residual ratio (% remaining for 30-minute reaction)” value is on record as “A (a % remaining rate of 75% or more)”.

With `N#Cc1ccc(-c2nccs2)c2oc(N3CC4CC(C3)N4)nc12` [Example 335, 2-(3,6-diazabicyclo [3.1.1]heptan-3-yl)-7-(thiazol-2-yl)benzo [d]oxazole-4-carbonitrile], the IC50 in the data set with PDE4 (setting [3]) is less than 100 nM. The “Residual ratio (% remaining for 30-minute reaction)” value in data set [1] was “A (a % remaining rate of 75% or more)”.

On to `OCC(F)(F)Oc1ccc(-c2ccccn2)c2oc(N3CC4CC(C3)N4)nc12` [Example 315, 2-((2-(3,6-Diazabicyclo[3.1.1]heptan-3-yl)-7-(pyridin-2-yl)benzo[d]oxazol-4-yl)oxy)-2,2-difluoroethan-1-ol], for which the IC50 with PDE4 (setting [2]) is less than 100 nM. Moreover, in data set [1], the “Residual ratio (% remaining for 30-minute reaction)” value is “A (a % remaining rate of 75% or more)”.

Take `CC(C)(O)C(F)(F)Oc1c(Br)cc(-c2nccs2)c2oc(N3CC4CC(C3)N4)nc12` [Example 399, 1-((2-(3,6-diazabicyclo [3.1.1]heptan-3-yl)-5-bromo-7-(thiazol-2-yl)benzo[d]oxazol-4-yl)oxy)-1,1-difluoro-2-methylpropan-2-ol]: the IC50 with PDE4 (setting [3]) is less than 100 nM. The “Residual ratio (% remaining for 30-minute reaction)” value in data set [1] was “B (60% or more and less than 75%)”.

Regarding `CC(C)(O)C(F)(F)Oc1ccc(-n2nccn2)c2oc(N3CC4CCC(C3)N4)nc12` [Example 322, 1-((2-(3,8-Diazabicyclo[3.2.1]octan-3-yl)-7-(2H-1,2,3-triazol-2-yl)benzo[d]oxazol-4-yl)oxy)-1,1-difluoro-2-methylpropan-2-ol], in the data set with PDE4 (setting [2]), the IC50 was less than 100 nM. Besides, the “Residual ratio (% remaining for 30-minute reaction)” value in data set [1] is reported as “A (a % remaining rate of 75% or more)”.

On to `CS(=O)(=O)c1ccc(Oc2ccc(-c3nccs3)c3oc(N4CC5CC(C4)N5)nc23)nc1` [Example 352, 2-(3,6-diaza-bicyclo[3.1.1]heptan-3-yl)-4-((5-(methylsulfonyl)pyridin-2-yl)oxy)-7-(thiazol-2-yl)benzo [d]oxazole], for which the IC50 with PDE4 (setting [3]) is less than 100 nM. Moreover, the “Residual ratio (% remaining for 30-minute reaction)” value in data set [1] is listed as “A (a % remaining rate of 75% or more)”.

Consider `NC(=O)C(F)(F)Oc1ccc(-c2nccs2)c2oc(N3CC4CC(C3)N4)nc12` [Example 410, 2-((2-(3,6-diazabicyclo [3.1.1]heptan-3-yl)-7-(thiazol-2-yl)benzo[d]oxazol-4-yl)oxy)-2,2-difluoro-acetamide], for which the IC50 in the data set on PDE4 (setting [3]) is less than 100 nM. Further, in data set [1], the “Residual ratio (% remaining for 30-minute reaction)” value was “A (a % remaining rate of 75% or more)”.

Take `CC(O)C(F)(F)Oc1ccc(-c2nccs2)c2oc(N3CC4CC(C3)N4)nc12` (single isomer, unassigned) [Example 252, 1-((2-(3,6-Diazabicyclo[3.1.1]heptan-3-yl)-7-(thiazol-2-yl)benzo[d]oxazol-4-yl)oxy)-1,1-difluoropropan-2-ol]: the IC50 with PDE4 (setting [2]) was less than 100 nM. Also, the “Residual ratio (% remaining for 30-minute reaction)” value in data set [1] is “A (a % remaining rate of 75% or more)”.

Regarding `O=S(=O)(c1ccc(-c2nccs2)c2oc(N3CC4CC(C3)N4)nc12)C(F)(F)F` [Example 334, 2-(3,6-diazabicyclo [3.1.1]heptan-3-yl)-7-(thiazol-2-yl)-4-((trifluoromethyl)sulfonyl) benzo[d]oxazole], the IC50 in the data set with PDE4 (setting [3]) is less than 100 nM. The “Residual ratio (% remaining for 30-minute reaction)” value in data set [1] was “B (60% or more and less than 75%)”.
